Measured values taken from publication PMC10920834, “Synthesis, anticancer activity, and molecular docking of half-sandwich iron(II) cyclopentadienyl complexes with maleimide and phosphine or phosphite ligands” (Scientific Reports, 2024).
pIC50: −log10 of the molar value.

Experiments:
A549 cells [1] = assay: Cell viability resazurin assay, A549 cells; type: cell-based, human; conditions: for viability of A549 cells relative to control: ± SD
Outline: (§1)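 A549 cells (5 × 10^3/well, adhered 24 h) or HL-60 cells (1 × 10^4/well) exposed to iron(II) complexes at 0.5–250 μM for 2 h and 24 h at 37 °C. Resazurin then added for 2 h; fluorescence (ex 530, em 590 nm) expressed as percent of control, IC50 calculated, octuplicate.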

PBM cells = assay: Cell viability resazurin assay, PBM cells; type: cell-based, human; conditions: for viability of PBM cells relative to control: ± SD
Outline: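 Human PBM cells isolated from healthy-donor buffy coats by density gradient, seeded at 5 × 10^4 per well in RPMI 1640 and exposed to iron(II) complexes at 0.5–250 μM for 2 h and 24 h at 37 °C. Resazurin added for 2 h and fluorescence read at 530/590 nm; IC50 from percentage of control, octuplicate.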

[2] = test system: Genomic DNA isolated from A549 cell line; assay: DNA titration (UV-Vis absorption spectra); type: binding, human; conditions: 0.5, 5 and 50 µM, 15 min, room temp.
Description: Genomic DNA was isolated from A549 cell line using a commercially available kit (Extractme Genomic DNA Kit, Blirt, Gdansk, Poland) following the manufacturer’s protocol. The concentration and purity of DNA were measured by BioTek Synergy HT Microplate Reader (BioTek Instruments, Winooski, VT, USA). Genomic DNA in the amount of 20 µg was incubated with complex 2b for 15 min at room temp. at concentrations 0.5, 5, and 50 µM in a final volume of 2 ml. Next UV–Vis absorbance spectra (240–300 nm) was measured by UV–Vis JASCO V-630 spectrophotometer (JASCO, Japan).

HL-60 cells [3] = assay: Alkaline comet assay, HL-60 cells; type: cell-based, human
Description: (§2) Selected iron(II) complexes were added to the suspension of the cells to give final concentrations of 1, 5, 10, 25 and 50 μM. HL-60 and A549 cells were incubated with the complexes for 2 h at 37 °C. The comet assay was performed under alkaline conditions according to the procedure of Tokarz et al.[45]. […] Next, the cells were lysed for 1 h at 4 °C in a buffer containing 2.5 M NaCl, 0.1 M EDTA, 10 mM Tris, 1% Triton X-100, pH 10. Following the lysis, the slides were placed in an electrophoresis unit. DNA was allowed to unwind for 20 min in the solution containing 300 mM NaOH and 1 mM EDTA, pH > 13. […] After separation, the slides were washed in water, drained, stained with 2 μg/ml DAPI and covered with cover slips. As a prevention from additional DNA damage, the procedure described above was conducted under limited light or in the dark. Each experiment included the positive control—cells incubated with H2O2 at 20 µM for 15 min on ice (data not shown).
(§3) The comets obtained after single cell gel electrophoresis were analysed in the following manner. […] Hundred images of singular comets were randomly selected from each sample and the mean value of DNA in comet tail was taken as an index of DNA damage (expressed in percent).

A549 cells [4] = assay: Alkaline comet assay, A549 cells; type: cell-based, human; conditions: 2 h, 50 μM
Description: as §2, §3

HL-60 cells [5] = assay: Cell viability resazurin assay, HL-60 cells; type: cell-based, human; conditions: for viability of HL-60 cells relative to control: ± SD
Outline: as §1

Compound: O=C1C=CC(=O)[N-]1.[C-]#[O+].[Fe+2].c1cc[cH-]c1.c1coc(P(c2ccco2)c2ccco2)c1 [2b, CpFe(CO)(P(Fu)3)(η^1-N-maleimidato)]
- viability of A549 cells relative to control (A549 cells [1]; 2 h incubation, 0.5 µM): 84.30 ± 11.24%
- viability of A549 cells relative to control (A549 cells [1]; 2 h incubation, 1 µM): 80.74 ± 14%
- viability of A549 cells relative to control (A549 cells [1]; 2 h incubation, 2.5 µM): 82.33 ± 9.73%
- viability of A549 cells relative to control (A549 cells [1]; 2 h incubation, 5 µM): 83.32 ± 11.51%
- viability of A549 cells relative to control (A549 cells [1]; 2 h incubation, 10 µM): 101.28 ± 15.65%
- viability of A549 cells relative to control (A549 cells [1]; 2 h incubation, 25 µM): 114.98 ± 11.35%
- viability of A549 cells relative to control (A549 cells [1]; 2 h incubation, 50 µM): 123.09 ± 7.89%
- viability of A549 cells relative to control (A549 cells [1]; 2 h incubation, 100 µM): 84.95 ± 8.31%
- viability of A549 cells relative to control (A549 cells [1]; 2 h incubation, 250 µM): 40.75 ± 4.24%
- pIC50 (A549 cells [1]; 24 h incubation): 4.13
- viability of A549 cells relative to control (A549 cells [1]; 24 h incubation, 0.5 µM): 81.57 ± 14.09%
- viability of A549 cells relative to control (A549 cells [1]; 24 h incubation, 1 µM): 74.40 ± 19.47%
- viability of A549 cells relative to control (A549 cells [1]; 24 h incubation, 2.5 µM): 73.54 ± 23.46%
- viability of A549 cells relative to control (A549 cells [1]; 24 h incubation, 5 µM): 61.87 ± 14.65%
- viability of A549 cells relative to control (A549 cells [1]; 24 h incubation, 10 µM): 87.91 ± 9.79%
- viability of A549 cells relative to control (A549 cells [1]; 24 h incubation, 25 µM): 110.30 ± 11.49%
- viability of A549 cells relative to control (A549 cells [1]; 24 h incubation, 50 µM): 91.31 ± 16.37%
- viability of A549 cells relative to control (A549 cells [1]; 24 h incubation, 100 µM): 13.33 ± 3.51%
- viability of A549 cells relative to control (A549 cells [1]; 24 h incubation, 250 µM): 1.39 ± 0.12%
- viability of PBM cells relative to control (PBM cells; 2 h incubation, 0.5 µM): 98.07 ± 0.32%
- viability of PBM cells relative to control (PBM cells; 2 h incubation, 1 µM): 97.62 ± 0.66%
- viability of PBM cells relative to control (PBM cells; 2 h incubation, 2.5 µM): 96.06 ± 2.38%
- viability of PBM cells relative to control (PBM cells; 2 h incubation, 5 µM): 97 ± 1.29%
- viability of PBM cells relative to control (PBM cells; 2 h incubation, 10 µM): 96.53 ± 1.24%
- viability of PBM cells relative to control (PBM cells; 2 h incubation, 25 µM): 93.16 ± 4.6%
- viability of PBM cells relative to control (PBM cells; 2 h incubation, 50 µM): 79.21 ± 1.4%
- viability of PBM cells relative to control (PBM cells; 2 h incubation, 100 µM): 78.49 ± 1.24%
- viability of PBM cells relative to control (PBM cells; 2 h incubation, 250 µM): 75.23 ± 0.62%
- pIC50 (PBM cells; 24 h incubation): < 3.60
- viability of PBM cells relative to control (PBM cells; 24 h incubation, 0.5 µM): 105.37 ± 7.62%
- viability of PBM cells relative to control (PBM cells; 24 h incubation, 1 µM): 101.81 ± 0.86%
- viability of PBM cells relative to control (PBM cells; 24 h incubation, 2.5 µM): 97.1 ± 1.83%
- viability of PBM cells relative to control (PBM cells; 24 h incubation, 5 µM): 94.2 ± 4.56%
- viability of PBM cells relative to control (PBM cells; 24 h incubation, 10 µM): 94.94 ± 2.09%
- viability of PBM cells relative to control (PBM cells; 24 h incubation, 25 µM): 88.93 ± 2.18%
- viability of PBM cells relative to control (PBM cells; 24 h incubation, 50 µM): 85.34 ± 2.58%
- viability of PBM cells relative to control (PBM cells; 24 h incubation, 100 µM): 83.38 ± 3.4%
- viability of PBM cells relative to control (PBM cells; 24 h incubation, 250 µM): 77.59 ± 2.06%
- interaction with DNA (UV-Vis spectroscopic titration) [2]: does not interact in an intercalative manner with DNA
- DNA damage in HL-60 cells (alkaline comet assay), in words (HL-60 cells [3]; 2 h incubation, 1-50 μM tested): induced DNA damage
- DNA in tail (alkaline comet assay) (HL-60 cells [3]; HL-60 cells, 2 h, 50 μM): 6%
- percentage of DNA damage in tail (alkaline comet assay) (A549 cells [4]): about 2%
- viability of HL-60 cells relative to control (HL-60 cells [5]; 2 h incubation, 0.5 µM): 106.51 ± 2.33%
- viability of HL-60 cells relative to control (HL-60 cells [5]; 2 h incubation, 1 µM): 106.74 ± 1.35%
- viability of HL-60 cells relative to control (HL-60 cells [5]; 2 h incubation, 2.5 µM): 103.04 ± 1.98%
- viability of HL-60 cells relative to control (HL-60 cells [5]; 2 h incubation, 5 µM): 104.72 ± 2.62%
- viability of HL-60 cells relative to control (HL-60 cells [5]; 2 h incubation, 10 µM): 104.03 ± 2.08%
- viability of HL-60 cells relative to control (HL-60 cells [5]; 2 h incubation, 25 µM): 95.86 ± 2.66%
- viability of HL-60 cells relative to control (HL-60 cells [5]; 2 h incubation, 50 µM): 90.45 ± 0.98%
- viability of HL-60 cells relative to control (HL-60 cells [5]; 2 h incubation, 100 µM): 76.15 ± 3.1%
- viability of HL-60 cells relative to control (HL-60 cells [5]; 2 h incubation, 250 µM): 21.23 ± 1.56%
- pIC50 (HL-60 cells [5]; 24 h incubation): 5.00
- viability of HL-60 cells relative to control (HL-60 cells [5]; 24 h incubation, 0.5 µM): 107.57 ± 3.87%
- viability of HL-60 cells relative to control (HL-60 cells [5]; 24 h incubation, 1 µM): 105.5 ± 3.13%
- viability of HL-60 cells relative to control (HL-60 cells [5]; 24 h incubation, 2.5 µM): 97.63 ± 0.5%
- viability of HL-60 cells relative to control (HL-60 cells [5]; 24 h incubation, 5 µM): 79.34 ± 1.21%
- viability of HL-60 cells relative to control (HL-60 cells [5]; 24 h incubation, 10 µM): 51.6 ± 1.43%
- viability of HL-60 cells relative to control (HL-60 cells [5]; 24 h incubation, 25 µM): 38.21 ± 0.22%
- viability of HL-60 cells relative to control (HL-60 cells [5]; 24 h incubation, 50 µM): 35.8 ± 2.09%
- viability of HL-60 cells relative to control (HL-60 cells [5]; 24 h incubation, 100 µM): 25.41 ± 1.92%
- viability of HL-60 cells relative to control (HL-60 cells [5]; 24 h incubation, 250 µM): 17.52 ± 1.12%
